Measured values taken from ChEMBL document CHEMBL2311281, “Novel berberine triazoles: synthesis, antimicrobial evaluation and competitive interactions with metal ions to human serum albumin” (Bioorg Med Chem Lett, 2013).
In brackets after ≈: the same amount, converted by molar mass.

Key:
Pseudomonas aeruginosa = assay: Antibacterial activity against Pseudomonas aeruginosa by two fold serial dilution method; assay type: functional
Bacillus subtilis = assay: Antibacterial activity against Bacillus subtilis by two fold serial dilution method; assay type: functional
Staphylococcus aureus [1] = assay: Antibacterial activity against Staphylococcus aureus ATCC 25923 by two fold serial dilution method; assay type: functional
Escherichia coli = assay: Antibacterial activity against Escherichia coli DH52 by two fold serial dilution method; assay type: functional
Staphylococcus aureus [2] = assay: Antibacterial activity against methicillin-resistant Staphylococcus aureus N315 by two fold serial dilution method; assay type: functional
Proteus vulgaris = assay: Antibacterial activity against Proteus vulgaris by two fold serial dilution method; assay type: functional
Shigella dysenteriae = assay: Antibacterial activity against Shigella dysenteriae by two fold serial dilution method; assay type: functional
Micrococcus luteus = assay: Antibacterial activity against Micrococcus luteus ATCC 4698 by two fold serial dilution method; assay type: functional
Staphylococcus aureus [3] = assay: Potency index, ratio of MIC for chloromycin to MIC compound against methicillin-resistant Staphylococcus aureus N315 by two fold serial dilution method; assay type: functional
Staphylococcus aureus [4] = assay: Potency index, ratio of MIC for berberine to MIC compound against methicillin-resistant Staphylococcus aureus N315 by two fold serial dilution method; assay type: functional
Albumin [5] = target: T1, Albumin (Homo sapiens, UniProt P02768); assay: Ratio of binding affinity to HSA in presence of Ce3+ ions to binding affinity to HSA in absence of metal ions; assay type: ADME; details: isolated protein
T1 sequence (P02768 whole entry): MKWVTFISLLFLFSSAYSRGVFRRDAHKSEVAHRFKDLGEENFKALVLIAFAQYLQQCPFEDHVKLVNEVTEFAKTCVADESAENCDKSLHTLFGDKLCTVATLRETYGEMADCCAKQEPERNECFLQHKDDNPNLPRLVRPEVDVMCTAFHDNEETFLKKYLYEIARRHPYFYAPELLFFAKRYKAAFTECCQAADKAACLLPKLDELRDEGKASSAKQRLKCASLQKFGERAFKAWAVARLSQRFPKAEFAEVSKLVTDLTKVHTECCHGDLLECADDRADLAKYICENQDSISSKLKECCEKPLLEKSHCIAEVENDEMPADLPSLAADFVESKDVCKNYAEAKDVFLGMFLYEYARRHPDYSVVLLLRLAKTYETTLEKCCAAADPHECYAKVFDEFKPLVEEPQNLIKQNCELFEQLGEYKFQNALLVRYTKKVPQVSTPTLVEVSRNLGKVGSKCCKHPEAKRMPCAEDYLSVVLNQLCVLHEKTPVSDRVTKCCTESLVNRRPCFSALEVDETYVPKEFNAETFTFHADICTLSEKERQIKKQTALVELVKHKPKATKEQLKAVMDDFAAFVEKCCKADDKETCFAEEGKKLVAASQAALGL

Albumin [6] = target: T1, Albumin; assay: Ratio of binding affinity to HSA in presence of Cu2+ ions to binding affinity to HSA in absence of metal ions; assay type: ADME; details: isolated protein
Albumin [7] = target: T1, Albumin; assay: Ratio of binding affinity to HSA in presence of Ni2+ ions to binding affinity to HSA in absence of metal ions; assay type: ADME; details: isolated protein
Albumin [8] = target: T1, Albumin; assay: Ratio of binding affinity to HSA in presence of Pb2+ ions to binding affinity to HSA in absence of metal ions; assay type: ADME; details: isolated protein
Albumin [9] = target: T1, Albumin; assay: Ratio of binding affinity to HSA in presence of K+ ions to binding affinity to HSA in absence of metal ions; assay type: ADME; details: isolated protein
Albumin [10] = target: T1, Albumin; assay: Ratio of binding affinity to HSA in presence of Zn2+ ions to binding affinity to HSA in absence of metal ions; assay type: ADME; details: isolated protein
Albumin [11] = target: T1, Albumin; assay: Ratio of binding affinity to HSA in presence of Ca2+ ions to binding affinity to HSA in absence of metal ions; assay type: ADME; details: isolated protein
Albumin [12] = target: T1, Albumin; assay: Ratio of binding affinity to HSA in presence of La3+ ions to binding affinity to HSA in absence of metal ions; assay type: ADME; details: isolated protein
Albumin [13] = target: T1, Albumin; assay: Ratio of binding affinity to HSA in presence of Fe3+ ions to binding affinity to HSA in absence of metal ions; assay type: ADME; details: isolated protein
Albumin [14] = target: T1, Albumin; assay: Ratio of binding affinity to HSA in presence of Mg2+ ions to binding affinity to HSA in absence of metal ions; assay type: ADME; details: isolated protein

| Compound | MIC (Pseudomonas aeruginosa) [µg/mL] | MIC (Bacillus subtilis) [µg/mL] | MIC (Staphylococcus aureus [1]) [µg/mL] | MIC (Escherichia coli) [µg/mL] | MIC (Staphylococcus aureus [2]) [µg/mL] | MIC (Proteus vulgaris) [µg/mL] | MIC (Shigella dysenteriae) [µg/mL] | MIC (Micrococcus luteus) [µg/mL] | Ratio (Staphylococcus aureus [3]) | Ratio (Staphylococcus aureus [4]) | Ratio (Albumin [5]) | Ratio (Albumin [6]) | Ratio (Albumin [7]) | Ratio (Albumin [8]) | Ratio (Albumin [9]) | Ratio (Albumin [10]) | Ratio (Albumin [11]) | Ratio (Albumin [12]) | Ratio (Albumin [13]) | Ratio (Albumin [14]) |
| --- | --- | --- | --- | --- | --- | --- | --- | --- | --- | --- | --- | --- | --- | --- | --- | --- | --- | --- | --- | --- |
| COc1ccc2cc3[n+](cc2c1OCCN(CCn1cncn1)Cc1ccc(Cl)cc1)CCc1cc2c(cc1-3)OCO2.[Cl-] | 16 | 8 | 16 | 16 | 16 | 32 | 8 | 16 |  |  |  |  |  |  |  |  |  |  |  |  |
| COc1ccc2cc3[n+](cc2c1OCCN(CCn1cncn1)Cc1cccc(Cl)c1)CCc1cc2c(cc1-3)OCO2.[Cl-] | 32 | 16 | 8 | 8 | 32 | 32 | 32 | 32 |  |  |  |  |  |  |  |  |  |  |  |  |
| COc1ccc2cc3[n+](cc2c1OCCN(CCn1cncn1)Cc1ccccc1Cl)CCc1cc2c(cc1-3)OCO2.[Cl-] | 32 | 8 | 8 | 8 | 16 | 16 | 32 | 32 |  |  |  |  |  |  |  |  |  |  |  |  |
| COc1ccc2cc3[n+](cc2c1OCCN(CCn1cncn1)Cc1ccc(Cl)c(Cl)c1)CCc1cc2c(cc1-3)OCO2.[Cl-] | 16 | 8 | 8 | 8 | 16 | 8 | 16 | 16 |  |  |  |  |  |  |  |  |  |  |  |  |
| COc1ccc2cc3[n+](cc2c1OCCN(CCn1cncn1)Cc1ccc(Cl)cc1Cl)CCc1cc2c(cc1-3)OCO2.[Cl-] | 16 | 8 | 8 | 4 | 8 | 8 | 8 | 16 | 2 | 16 |  |  |  |  |  |  |  |  |  |  |
| COc1ccc2cc3[n+](cc2c1OCCN(CCn1cncn1)Cc1cccc(F)c1)CCc1cc2c(cc1-3)OCO2.[Cl-] | 8 | 8 | 8 | 8 | 8 | 4 | 4 | 16 | 2 | 16 |  |  |  |  |  |  |  |  |  |  |
| COc1ccc2cc3[n+](cc2c1OCCN(CCn1cncn1)Cc1ccccc1F)CCc1cc2c(cc1-3)OCO2.[Cl-] | 8 | 8 | 4 | 4 | 8 | 4 | 4 | 8 | 2 | 16 |  |  |  |  |  |  |  |  |  |  |
| Clc1ccc(CN(CCBr)CCn2cncn2)cc1 | 256 (≈ 745 µM) | 256 (≈ 745 µM) | 128 (≈ 372 µM) | 128 (≈ 372 µM) | 256 (≈ 745 µM) | 512 (≈ 1490 µM) | 256 (≈ 745 µM) | 512 (≈ 1490 µM) |  |  |  |  |  |  |  |  |  |  |  |  |
| COc1ccc2cc3[n+](cc2c1OCCN(CCn1cncn1)Cc1ccc(F)cc1F)CCc1cc2c(cc1-3)OCO2.[Cl-] | 8 | 8 | 4 | 4 | 8 | 2 | 4 | 8 | 2 | 16 | 0.998 | 0.972 | 0.839 | 0.963 | 0.943 | 0.871 | 0.956 | 0.883 | 1.116 | 1.064 |
